In US20120029085A1, “STABILIZATION OF QUINOL COMPOSITION SUCH AS CATECHOLAMINE DRUGS” (priority 2010, published 2012):

What was measured:
[1] = cited from earlier work
[2] = Percent protonated (RNH+) and unprotonated (RN) amine form of local anesthetics as a function of pH; assay type: physicochemical; conditions: for % RNH(+) at pH 5.0: pH 5.0, protonated form; for % RN at pH 5.0: pH 5.0, unprotonated form; for % RNH(+) at pH 6.5: pH 6.5, protonated form; for % RN at pH 6.5: pH 6.5, unprotonated form; for % RNH(+) at pH 7.4: pH 7.4, protonated form; for % RN at pH 7.4: pH 7.4, unprotonated form
Text: According to the Henderson-Hasselbalch equation:
pH=pKa+log([A^−]/[HA]) (I)

[3] = amine group of the local anesthetic; cited from earlier work
[4] = cystine/cysteine redox couple; cited from earlier work

Row | Compound | % RNH(+) at pH 5.0 [2] [%] | % RN at pH 5.0 [2] [%] | % RNH(+) at pH 6.5 [2] [%] | % RN at pH 6.5 [2] [%] | % RNH(+) at pH 7.4 [2] [%] | % RN at pH 7.4 [2] [%] | other results
1 | NC(=O)CN(CC(=O)O)CC(=O)O [ADA] | – | – | – | – | – | – | pKa ([1]; Table 3, buffer): 6.60
2 | O=S(=O)(O)CCN(CCO)CCO [BES] | – | – | – | – | – | – | pKa ([1]; Table 3, buffer): 7.09
3 | CCOC(=O)c1ccc(N)cc1 [Benzocaine] | 0.99 | 99.01 | 0.03 | 99.97 | 0.00 | 100.00 | pKa (amine) [3]: 3
4 | OCC(CO)(CO)NCCCNC(CO)(CO)CO [Bis-Tris Propane] | – | – | – | – | – | – | pKa1 ([1]; Table 3, buffer, first dissociation): 6.80
5 | CCN(CC)CCOC(=O)c1ccc(N)cc1Cl [Chloroprocaine] | 99.98 | 0.02 | 99.37 | 0.63 | 95.23 | 4.77 | pKa (amine) [3]: 8.7
6 | CCCCOc1cc(C(=O)NCCN(CC)CC)c2ccccc2n1 [Dibucaine] | 99.98 | 0.02 | 99.50 | 0.50 | 96.17 | 3.83 | pKa (amine) [3]: 8.8
7 | CCN(CC)CC(=O)Nc1c(C)cccc1C [Lidocaine] | 99.87 | 0.13 | 96.17 | 3.83 | 75.97 | 24.03 | –
8 | O=S(=O)(O)CCCCN1CCOCC1 [MOBS] | – | – | – | – | – | – | pKa ([1]; Table 3, buffer): 7.60
9 | O=C(O)CC(O)C(=O)O (stereo not drawn) [Malate] | – | – | – | – | – | – | pKa2 ([1]; Table 3, buffer, second dissociation): 5.13
10 | CCCNC(C)C(=O)Nc1ccccc1C (stereo not drawn) [Prilocaine] | 99.87 | 0.13 | 96.17 | 3.83 | 75.97 | 24.03 | –
11 | O=S(=O)(O)CCNC(CO)(CO)CO [TES] | – | – | – | – | – | – | pKa ([1]; Table 3, buffer): 7.50
12 | O=C(O)CNC(CO)(CO)CO [Tricine] | – | – | – | – | – | – | pKa ([1]; Table 3, buffer): 8.05
13 | N[C@@H](CS)C(=O)O [cysteine] | – | – | – | – | – | – | standard reduction potential E° [4]: −0.34 V
14 | CCC(CC)(C(=O)O)C(=O)O [diethylmalonic acid] | – | – | – | – | – | – | pKa (value in parentheses after the buffer name) ([1]; text list of pH buffers, b28): 7.2

Second part, led by results:

Row | % RNH(+) at pH 5.0 [2] [%] | % RN at pH 5.0 [2] [%] | % RNH(+) at pH 6.5 [2] [%] | % RN at pH 6.5 [2] [%] | % RNH(+) at pH 7.4 [2] [%] | % RN at pH 7.4 [2] [%] | Compound | other results
15 | 99.84 | 0.16 | 95.23 | 4.77 | 71.53 | 28.47 | CCCNC(C)C(=O)Nc1c(C)csc1C(=O)OC (stereo not drawn) [Articaine] | –
16 | 99.92 | 0.08 | 97.55 | 2.45 | 83.37 | 16.63 | CCCCN1CCCCC1C(=O)Nc1c(C)cccc1C (stereo not drawn) [Bupivacaine] | –
17 | 99.80 | 0.20 | 94.06 | 5.94 | 66.61 | 33.39 | CCCN(CC)C(CC)C(=O)Nc1c(C)cccc1C (stereo not drawn) [Etidocaine] | –
18 | 99.75 | 0.25 | 92.64 | 7.36 | 61.31 | 38.69 | Cc1cccc(C)c1NC(=O)C1CCCCN1C (stereo not drawn) [Mepivacaine] | –
19 | 99.99 | 0.01 | 99.60 | 0.40 | 96.93 | 3.07 | CCN(CC)CCOC(=O)c1ccc(N)cc1 [Procaine] | –
20 | 99.92 | 0.08 | 97.55 | 2.45 | 83.37 | 16.63 | CCCN1CCCC[C@H]1C(=O)Nc1c(C)cccc1C [Ropivacaine] | –
21 | 99.94 | 0.06 | 98.04 | 1.96 | 86.32 | 13.68 | CCCCNc1ccc(C(=O)OCCN(C)C)cc1 [Tetracaine] | –
